According to BindingDB's records for patent US10112941 (Bristol-Myers Squibb, 2018):

Molecular target: Bromodomain-containing protein 4 (Homo sapiens, UniProt O60885)
Experiment: TR-FRET Assay
Experimental: All assay components were dissolved in buffer composition 20 mM Hepes pH 7.5, 150 mM NaCl, 5 mM DTT, 0.005% Tween 20, and 100 ug/ml BSA for BRD4 (1-477 and 44-460). The final concentrations of the bromodomain proteins are 1.6 nM BRD4(44-168), 1 nM BRD4(333-460), and 1 nM BRD4(1-477 or 44-460), and the fluorescent probe molecule is 100 nM, 50 nM, and 7.5 nM respectively. All proteins were biotinylated. A streptavidin labeled with terbium cryptate (Cisbio SA-Tb) was used as detection, and pre-mixed with the bromodomain protein at a final concentration of 0.2 nM. In some instances for BRD4 (44-460), anti-His terbium cryptate was used as a detection. 7.5 nl of dose-responsed test compound or dmso vehicle (0.0375%) was pre-spotted in a black Corning 384 well plate and 10 ul each of bromodomain/detection reagent and fluorescent small molecule solution were added to the plate, and the reaction incubated for 60 min at room temperature. Plates were then read on EnVision plate reader, (λex=340 nm, acceptor λEm=520 nm, and donor λEm=615 nm, LANCE D400 mirror). Time resolved fluorescence intensity measurements were made at both emissions, and the ratio of acceptor/donor was calculated and used for data analysis.

Cc1nnn(C)c1-c1cnc2c3ccc(C(C)(C)O)cc3n([C@@H](c3ccccc3F)C3CCOCC3)c2c1 [US10112941, Example 65]
IC50: < 5 nM
